According to ChEMBL document CHEMBL5614444, “Advancements in Targeted Therapeutics: Integrating Metabolic Modulation, Immune Engineering, and Biologic Formulation Technologies” (ACS Med Chem Lett, 2024):
Activity calls are given as the source filed them. The calls are words filed in the database; no cut-off is given here.

Experiments:
[1] = target: T1, Peroxisome proliferator-activated receptor gamma (Homo sapiens) (UniProt P37231); assay: (§1) Antagonist activity at PPARgamma (unknown origin); conditions: filed as antagonist
T1 sequence (whole entry): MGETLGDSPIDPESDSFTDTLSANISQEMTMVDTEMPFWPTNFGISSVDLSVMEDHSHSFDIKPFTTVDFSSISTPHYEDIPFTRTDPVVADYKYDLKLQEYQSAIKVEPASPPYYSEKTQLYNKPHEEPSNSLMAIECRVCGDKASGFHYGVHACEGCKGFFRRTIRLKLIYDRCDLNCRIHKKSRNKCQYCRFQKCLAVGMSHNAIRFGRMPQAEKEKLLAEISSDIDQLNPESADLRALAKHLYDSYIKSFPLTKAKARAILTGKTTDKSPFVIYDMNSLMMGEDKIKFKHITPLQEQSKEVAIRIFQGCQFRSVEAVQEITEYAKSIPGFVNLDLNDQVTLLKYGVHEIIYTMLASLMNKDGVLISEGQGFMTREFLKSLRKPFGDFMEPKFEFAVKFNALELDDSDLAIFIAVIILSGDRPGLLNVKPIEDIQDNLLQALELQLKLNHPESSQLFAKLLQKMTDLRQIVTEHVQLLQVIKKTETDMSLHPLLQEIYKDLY

[2] = target: T1, Peroxisome proliferator-activated receptor gamma (Homo sapiens); assay: Inhibition of PPARgamma (unknown origin)
[3] = target: T2, Peroxisome proliferator-activated receptor gamma (Homo sapiens, UniProt P37231); assay: as §1
T2 sequence (P37231 whole entry): T1 sequence (whole entry)

SMILES: Cc1cc([N+](=O)[O-])ccc1NS(=O)(=O)c1cc(Cl)ccc1Cl
- Activity [1]: Active

SMILES: COc1ccc2nccc(NC(=O)c3cc([N+](=O)[O-])ccc3Cl)c2c1
- inhibition [2]: Active

SMILES: COP(=O)(OC)OC(c1ccc(Cl)cc1)P(=O)(OC)OC (centres undefined)
- Activity [1]: Active

SMILES: O=C(Nc1ccccc1)c1cc([N+](=O)[O-])ccc1Cl
- IC50 [3]: 3.3 nM
